Legend:
[1] = tested on: bleomycin-induced pulmonary fibrosis; experiment: Bleomycin (BLM)-induced pulmonary fibrosis in mice; assay type: in vivo, C57BL/6 mice; conditions: for antifibrotic effect in six-week course of BLM-induced fibrosis: Example 3, 5 mg/kg/day over weeks 4-6, FIG. 4
Method: C57BL/6 mice received subcutaneous implants of an ALZET mini-osmotic pump (Durect Corp., California) that released BLM continuously (Example 1, […]; Example 2, 120 U/kg/mouse/day) for seven days (Day 1-Day 7), to induce lung fibrosis (Lab Invest. 50:487-488, 1984; Am. J. Resp. Cell Mol. Biol. 45:489-497, 2011). Bleomycin induces epithelial injury, causing increased pulmonary inflammation from Days 1-21, peaking at about Day 10 before subsiding. Fibrosis begins at about Day 8 and gradually increases until Day 28.
BLM mice treated with test compound received a second subcutaneous ALZET mini-osmotic pump (Durect Corp., California) that released Compound A continuously. Compound A, 4-(((6S,9S,9aS)-1-(benzylcarbamoyl)-2,9-dimethyl-4,7-dioxo-8-(quinolin-8-ylmethyl)octahydro-1H-pyrazino[2,1-c][1,2,4]triazin-6-yl)methyl)phenyl dihydrogen phosphate.
Ashcroft score (J. Clin. Pathol. 41:467-470, 1988) was calculated from tissue sections of right lung stained by H&E. Left lung homogenates were analyzed for soluble collagen content using SIRCOL Collagen Assay kit (Biocolor Ltd., Carrickfergus, UK).
In Example 1, Compound A was administered 5 mg/kg/day over days 15-28.
In Example 2, Compound A was administered 1 mg/kg/day over Days 1-28 (“whole”), Days 1-14 (“early”) or Days 15-28 (“late”). […] Bleo, bleomycin treatment alone; Bleo+Cmpd A whole, bleomycin plus Compound A administered throughout 4 week period; Bleo+early 2w, bleomycin plus Compound A administered over weeks 1-2; Bleo+late 2w, bleomycin plus Compound A administered over weeks 3-4.
In Example 3, a six-week rather than four-week course of BLM-induced fibrosis was studied. In this example, either Compound A (5 mg/kg/day) or ICG-001 (5 mg/kg/day), another β-catenin inhibitor, was administered to BLM-treated mice over weeks 4-6.

[2] = tested on: lung epithelial cell line LA-4; experiment: TGF-β-induced epithelial-to-mesenchymal transition (EMT) in LA-4 cells; assay type: cell-based, murine
Method: In Example 4, the murine lung epithelial cell line, LA-4, available from the American Type Culture Collection (ATCC; Manassas, Va.), was treated with TGF-β (5 ng/ml) to induce epithelial-to-mesenchymal transition (EMT), a marker for fibrosis (J Clin Invest. 119:1420-1428, 2009). TGF-β treated cells were treated with no or with increasing concentrations (0.01 μM, 0.05 μM, 0.1 μM, or 0.5 μM) of Compound C. Compound C, (6S,9S,9aS)—N-benzyl-6-(4-hydroxybenzyl)-2,9-dimethyl-4,7-dioxo-8-(quinolin-8-ylmethyl)octahydro-1H-pyrazino[2,1-c][1,2,4]triazine-1-carboxamide.

[3] = target: β-catenin/CBP interaction (Homo sapiens, UniProt Q92793); conditions: cited from earlier work
Chain of β-catenin/CBP interaction (Q92793 whole entry): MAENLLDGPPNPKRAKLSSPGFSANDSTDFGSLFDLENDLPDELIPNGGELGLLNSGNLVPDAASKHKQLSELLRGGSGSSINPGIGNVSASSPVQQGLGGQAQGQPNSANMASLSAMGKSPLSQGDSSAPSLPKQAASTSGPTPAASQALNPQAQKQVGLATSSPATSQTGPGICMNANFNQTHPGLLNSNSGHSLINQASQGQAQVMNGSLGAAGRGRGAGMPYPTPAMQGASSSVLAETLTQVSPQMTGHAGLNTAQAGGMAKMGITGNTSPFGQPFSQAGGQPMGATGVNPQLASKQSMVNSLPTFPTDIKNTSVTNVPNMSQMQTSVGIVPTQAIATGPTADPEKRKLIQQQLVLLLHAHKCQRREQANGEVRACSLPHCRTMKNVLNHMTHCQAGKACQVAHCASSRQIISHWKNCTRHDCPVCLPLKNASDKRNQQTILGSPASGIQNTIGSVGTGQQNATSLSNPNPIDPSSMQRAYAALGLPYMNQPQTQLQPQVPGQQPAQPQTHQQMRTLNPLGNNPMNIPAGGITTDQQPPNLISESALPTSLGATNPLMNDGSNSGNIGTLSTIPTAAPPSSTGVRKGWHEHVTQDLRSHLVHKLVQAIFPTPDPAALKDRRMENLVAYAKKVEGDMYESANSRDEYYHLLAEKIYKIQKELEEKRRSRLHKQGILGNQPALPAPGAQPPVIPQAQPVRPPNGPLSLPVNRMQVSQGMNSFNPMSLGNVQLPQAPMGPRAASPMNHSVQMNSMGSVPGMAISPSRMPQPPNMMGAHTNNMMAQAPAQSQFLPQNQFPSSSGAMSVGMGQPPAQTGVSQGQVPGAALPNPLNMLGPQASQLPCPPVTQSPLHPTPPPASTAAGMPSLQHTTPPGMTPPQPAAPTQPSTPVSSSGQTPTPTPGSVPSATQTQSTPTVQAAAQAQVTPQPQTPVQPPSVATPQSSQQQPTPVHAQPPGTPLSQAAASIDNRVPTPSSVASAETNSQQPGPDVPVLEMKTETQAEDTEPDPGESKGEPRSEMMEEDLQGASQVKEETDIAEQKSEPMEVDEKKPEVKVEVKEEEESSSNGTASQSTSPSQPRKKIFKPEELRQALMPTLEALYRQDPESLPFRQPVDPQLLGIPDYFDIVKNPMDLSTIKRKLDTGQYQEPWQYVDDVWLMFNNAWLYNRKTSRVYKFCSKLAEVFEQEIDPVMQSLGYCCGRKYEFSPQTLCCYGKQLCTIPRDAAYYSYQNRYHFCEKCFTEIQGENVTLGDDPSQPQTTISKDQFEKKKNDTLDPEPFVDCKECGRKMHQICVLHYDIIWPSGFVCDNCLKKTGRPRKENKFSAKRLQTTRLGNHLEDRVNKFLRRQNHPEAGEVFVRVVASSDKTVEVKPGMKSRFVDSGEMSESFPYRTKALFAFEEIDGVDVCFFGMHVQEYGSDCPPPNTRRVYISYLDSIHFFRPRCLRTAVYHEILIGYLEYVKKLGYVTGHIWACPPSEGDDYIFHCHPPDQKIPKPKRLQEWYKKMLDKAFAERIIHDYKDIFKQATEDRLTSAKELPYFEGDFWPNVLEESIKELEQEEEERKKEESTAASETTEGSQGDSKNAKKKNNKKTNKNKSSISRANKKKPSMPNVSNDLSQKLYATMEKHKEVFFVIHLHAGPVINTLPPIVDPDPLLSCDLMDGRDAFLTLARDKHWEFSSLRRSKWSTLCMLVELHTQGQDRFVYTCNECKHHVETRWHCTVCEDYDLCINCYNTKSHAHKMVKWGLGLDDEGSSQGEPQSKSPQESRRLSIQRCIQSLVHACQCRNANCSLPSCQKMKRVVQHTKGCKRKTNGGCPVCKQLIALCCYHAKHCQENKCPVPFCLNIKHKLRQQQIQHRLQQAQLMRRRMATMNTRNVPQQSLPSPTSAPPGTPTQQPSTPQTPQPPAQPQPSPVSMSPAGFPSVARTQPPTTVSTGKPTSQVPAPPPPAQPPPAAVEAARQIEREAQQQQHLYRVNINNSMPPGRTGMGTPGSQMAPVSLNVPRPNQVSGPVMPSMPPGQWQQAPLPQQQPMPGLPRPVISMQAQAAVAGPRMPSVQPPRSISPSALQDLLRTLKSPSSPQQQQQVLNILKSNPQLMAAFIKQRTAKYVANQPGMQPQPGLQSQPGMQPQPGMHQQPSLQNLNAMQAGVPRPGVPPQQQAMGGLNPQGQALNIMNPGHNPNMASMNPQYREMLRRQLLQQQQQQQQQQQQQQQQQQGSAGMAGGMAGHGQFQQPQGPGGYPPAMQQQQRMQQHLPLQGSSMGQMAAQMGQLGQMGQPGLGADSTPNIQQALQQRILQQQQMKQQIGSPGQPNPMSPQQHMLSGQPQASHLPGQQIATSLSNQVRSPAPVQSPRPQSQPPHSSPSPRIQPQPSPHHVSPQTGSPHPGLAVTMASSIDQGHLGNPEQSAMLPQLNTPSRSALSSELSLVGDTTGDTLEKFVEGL

[4] = tested on: bleomycin-induced lung fibrosis; conditions: cited from earlier work

Row | SMILES | lung fibrosis by histological examination ([1]; Example 1, 5 mg/kg, days 14-28, FIG. 2C) | lung fibrosis (Ashcroft score) ([1]; Example 1, 5 mg/kg/day s.c. osmotic pump, days 15-28 (days 14-28), FIG. 1A, vs bleomycin alone) | collagen deposition (SIRCOL collagen assay, left lung) ([1]; Example 1, 5 mg/kg/day, days 15-28 (days 14-28), FIG. 1B, vs bleomycin alone) | antifibrotic effect, early (inflammatory) phase treatment ([1]; Example 2, 1 mg/kg/day, Days 1-14 (early), FIG. 3, vs no test compound) | antifibrotic effect, late (fibrotic) phase treatment ([1]; Example 2, 1 mg/kg/day, Days 15-28 (late), FIG. 3) | late phase treatment compared with treatment throughout the entire period ([1]; Example 2, 1 mg/kg/day, Days 15-28 vs Days 1-28 (whole), FIG. 3) | antifibrotic effect in six-week course of BLM-induced fibrosis [1] | α-SMA expression by fluorescent microscopy ([2]; TGF-β 5 ng/ml plus compound 0.01 μM, FIG. 6) | TGF-β-induced alpha smooth muscle actin (α-SMA) formation / EMT ([2]; TGF-β 5 ng/ml, increasing concentrations 0.01, 0.05, 0.1, 0.5 μM, FIG. 5) | selectivity β-catenin/CBP vs β-catenin/p300 interaction [3] | bleomycin-induced lung fibrosis ([4]; 5 mg/kg per day, mice) | β-catenin signaling ([4]; 5 mg/kg per day, mice) | fibrosis, administration concurrent with bleomycin ([4]; concurrent administration) | established fibrosis, late administration ([4]; late administration) | survival, late administration ([4]; late administration)
1 | C[C@H]1[C@H]2N(C(=O)CN(C)N2C(=O)NCc2ccccc2)[C@@H](Cc2ccc(OP(=O)(O)O)cc2)C(=O)N1Cc1cccc2cccnc12 [Compound A, 4-(((6S,9S,9aS)-1-(benzylcarbamoyl)-2,9-dimethyl-4,7-dioxo-8-(quinolin-8-ylmethyl)octahydro-1H-pyrazino[2,1-c][1,2,4]triazin-6-yl)methyl)phenyl dihydrogen phosphate] | reduces lung fibrosis | reduces lung fibrosis | reduced | not significantly beneficial | significantly reduced lung fibrosis | equal to, or even superior to | has an antifibrotic effect |  |  |  |  |  |  |  | 
2 | C[C@H]1[C@H]2N(C(=O)CN(C)N2C(=O)NCc2ccccc2)[C@@H](Cc2ccc(O)cc2)C(=O)N1Cc1cccc2cccnc12 [Compound C, (6S,9S,9aS)—N-benzyl-6-(4-hydroxybenzyl)-2,9-dimethyl-4,7-dioxo-8-(quinolin-8-ylmethyl)octahydro-1H-pyrazino[2,1-c][1,2,4]triazine-1-carboxamide] |  |  |  |  |  |  |  | decreased alpha smooth muscle actin (α-SMA) expression | inhibit TGF-β-induced alpha smooth muscle actin (α-SMA) formation |  |  |  |  |  | 
3 | O=C1[C@H](Cc2ccc(O)cc2)N2C(=O)CCN(C(=O)NCc3ccccc3)[C@H]2CN1Cc1cccc2ccccc12 [ICG-001] |  |  |  |  |  |  | antifibrotic effect, unlike β-catenin inhibitor ICG-001 |  |  | selectively blocks the β-catenin/CBP interaction without interfering with the β-catenin/p300 interaction | attenuates bleomycin-induced lung fibrosis | significantly inhibits β-catenin signaling | prevents fibrosis | reverse established fibrosis | significantly improve survival

Source: patent US20160166577A1, “TREATMENT OF PULMONARY FIBROSIS USING AN INHIBITOR OF CBP/CATENIN” (PRISM Pharma Co., Ltd., priority 2012, published 2016)
